Active and inactive are the calls of the source.
What was measured:
HeLa = experiment: viability loss in HeLa cells – cell-based, 24 h, cherry-picked samples, cytotoxicity control, dose response (AID 504726); type: functional; settings: Homo sapiens;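 note: potency for cytotoxicity as loss of luminescence signal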
[1] = target: T1, Calpain-2 catalytic subunit (Sus scrofa, UniProt P43367); experiment: m-calpain protease blockers, concentration series – biochemical, fluorogenic peptide substrate, dose response (AID 1420); type: functional
T1 sequence (P43367 whole entry): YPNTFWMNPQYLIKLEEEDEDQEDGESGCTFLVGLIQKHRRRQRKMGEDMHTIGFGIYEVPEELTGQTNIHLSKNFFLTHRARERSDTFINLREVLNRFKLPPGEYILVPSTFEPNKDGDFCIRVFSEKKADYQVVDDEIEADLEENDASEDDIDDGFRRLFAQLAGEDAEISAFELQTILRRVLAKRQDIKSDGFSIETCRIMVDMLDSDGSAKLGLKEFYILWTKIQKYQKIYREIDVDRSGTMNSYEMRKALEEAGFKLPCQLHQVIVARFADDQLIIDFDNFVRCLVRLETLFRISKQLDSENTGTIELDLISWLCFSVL

[2] = viability inhibitors of stage V gametocytes – luminescence, dose response (AID 1117278); type: functional, cell-based;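 note: gametocytes exposed to compound for 24 hours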
[3] = viability loss in human Jurkat cells – cell-based, luminescence, cytotoxicity control for P. falciparum gametocyte viability project, dose response (AID 1117277); type: functional;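 note: potency reflects loss of cellular ATP meaning fewer viable cells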
[4] = A Cell Based Secondary Assay To Explore Cytotoxicity of Compounds that Sensitize Mycobacterium Tuberculosis to Beta-Lactam Antibiotics.; type: functional
[5] = A549 cell cytotoxicity, dose response, cytotoxicity control, plate reader, cherry-pick, antagonist series (AID 743412); type: functional, cell-based
[6] = toxicity toward HepG2 liver cells – cell-based, plate reader, cherry-pick, antagonist series, cytotoxicity control, dose response (AID 743416); type: functional
[7] = blockers of bursicon-stimulated LGR2 cAMP reporter – cell-based, HEK293, CRE-luciferase reporter, cherry pick, set 2, dose response (AID 743343); type: functional;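 note: transfected cells were stimulated with diluted bursicon conditioned medium after compound addition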
[8] = blockade of melanocortin 4 receptor signaling – cell-based, plate reader, cherry pick, counter-screen for LGR2 antagonist project, dose response (AID 743444); type: functional;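 note: transfected HEK 293 cells stimulated with alpha-MSH peptide; potency of inhibitors of the alpha-MSH evoked signal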
[9] = viability loss in HEK293 cells – cell-based, plate reader, cherry-picked samples, cytotoxicity control, dose response (AID 743446); type: functional
[10] = viability loss in HeLa cells – cytotoxicity control for MgcRacGAP inhibitor project, dose response (AID 624300); type: functional
[11] = target: T2, Rac GTPase-activating protein 1 (Homo sapiens, UniProt Q9H0H5); experiment: blockers of MgcRacGAP-driven Rac1 GTP hydrolysis – biochemical, ADP Hunter fluorescence, primary and confirmatory, confirmation (AID 624330); type: functional
T2 sequence (Q9H0H5 whole entry): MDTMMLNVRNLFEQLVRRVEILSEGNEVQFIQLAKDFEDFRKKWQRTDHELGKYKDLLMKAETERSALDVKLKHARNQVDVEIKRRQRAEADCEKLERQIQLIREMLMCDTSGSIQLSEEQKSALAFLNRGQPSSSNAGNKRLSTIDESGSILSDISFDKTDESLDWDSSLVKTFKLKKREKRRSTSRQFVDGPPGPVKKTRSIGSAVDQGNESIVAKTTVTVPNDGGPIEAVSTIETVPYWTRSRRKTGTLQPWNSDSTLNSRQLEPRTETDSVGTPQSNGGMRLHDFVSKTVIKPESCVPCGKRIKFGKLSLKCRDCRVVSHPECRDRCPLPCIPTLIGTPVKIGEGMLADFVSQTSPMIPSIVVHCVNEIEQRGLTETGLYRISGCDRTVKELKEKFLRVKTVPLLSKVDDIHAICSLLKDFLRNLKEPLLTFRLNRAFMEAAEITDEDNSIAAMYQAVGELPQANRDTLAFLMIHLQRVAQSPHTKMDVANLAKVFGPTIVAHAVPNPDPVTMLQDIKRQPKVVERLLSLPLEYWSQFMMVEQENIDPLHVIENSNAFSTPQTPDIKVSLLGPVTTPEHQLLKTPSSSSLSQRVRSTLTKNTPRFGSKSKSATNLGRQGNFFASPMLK

Aminopeptidase N = target: T3, Aminopeptidase N (Plasmodium falciparum FcB1/Columbia, UniProt O96935); experiment: malaria alanyl aminopeptidase activity blockers – biochemical, fluorogenic H-Leu-NHMec substrate, 1536-well (AID 1445); design: species or system Plasmodium falciparum 3D7, 3D7
T3 sequence (O96935 whole entry): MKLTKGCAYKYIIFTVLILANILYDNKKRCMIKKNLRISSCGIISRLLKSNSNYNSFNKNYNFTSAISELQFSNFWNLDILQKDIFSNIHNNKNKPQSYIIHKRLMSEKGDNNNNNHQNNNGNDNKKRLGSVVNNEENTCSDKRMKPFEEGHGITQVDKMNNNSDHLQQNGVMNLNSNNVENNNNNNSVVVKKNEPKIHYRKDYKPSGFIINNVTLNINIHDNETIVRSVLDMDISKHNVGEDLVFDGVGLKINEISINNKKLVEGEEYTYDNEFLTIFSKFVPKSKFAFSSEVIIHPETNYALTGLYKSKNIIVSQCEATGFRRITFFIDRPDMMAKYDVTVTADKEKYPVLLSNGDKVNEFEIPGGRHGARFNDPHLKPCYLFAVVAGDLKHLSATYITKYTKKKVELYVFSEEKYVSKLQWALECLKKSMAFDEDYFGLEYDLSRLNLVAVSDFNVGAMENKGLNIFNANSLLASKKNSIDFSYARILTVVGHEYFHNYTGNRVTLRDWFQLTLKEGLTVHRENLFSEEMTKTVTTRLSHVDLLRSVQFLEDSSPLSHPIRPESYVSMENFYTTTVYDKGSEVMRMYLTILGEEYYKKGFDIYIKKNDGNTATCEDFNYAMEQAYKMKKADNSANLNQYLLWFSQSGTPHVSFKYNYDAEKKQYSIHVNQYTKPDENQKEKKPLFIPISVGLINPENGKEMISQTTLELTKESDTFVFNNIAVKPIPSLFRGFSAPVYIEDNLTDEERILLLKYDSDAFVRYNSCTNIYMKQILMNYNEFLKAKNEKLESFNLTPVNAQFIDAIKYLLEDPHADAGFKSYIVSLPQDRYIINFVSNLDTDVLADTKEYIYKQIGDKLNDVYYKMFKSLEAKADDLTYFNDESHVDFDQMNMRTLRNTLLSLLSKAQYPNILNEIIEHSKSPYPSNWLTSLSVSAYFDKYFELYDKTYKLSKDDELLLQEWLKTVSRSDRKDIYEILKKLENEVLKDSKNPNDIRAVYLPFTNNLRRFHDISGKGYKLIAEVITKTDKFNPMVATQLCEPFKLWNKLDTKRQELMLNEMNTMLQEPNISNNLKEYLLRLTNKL

Large T antigen = Large T antigen (Simian virus 40, UniProt P03070); type: functional, Betapolyomavirus macacae;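 note: Confirmatory-stage PubChem screen for compounds that inhibit SV40 T antigen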
Large T antigen, sequence (P03070 whole entry): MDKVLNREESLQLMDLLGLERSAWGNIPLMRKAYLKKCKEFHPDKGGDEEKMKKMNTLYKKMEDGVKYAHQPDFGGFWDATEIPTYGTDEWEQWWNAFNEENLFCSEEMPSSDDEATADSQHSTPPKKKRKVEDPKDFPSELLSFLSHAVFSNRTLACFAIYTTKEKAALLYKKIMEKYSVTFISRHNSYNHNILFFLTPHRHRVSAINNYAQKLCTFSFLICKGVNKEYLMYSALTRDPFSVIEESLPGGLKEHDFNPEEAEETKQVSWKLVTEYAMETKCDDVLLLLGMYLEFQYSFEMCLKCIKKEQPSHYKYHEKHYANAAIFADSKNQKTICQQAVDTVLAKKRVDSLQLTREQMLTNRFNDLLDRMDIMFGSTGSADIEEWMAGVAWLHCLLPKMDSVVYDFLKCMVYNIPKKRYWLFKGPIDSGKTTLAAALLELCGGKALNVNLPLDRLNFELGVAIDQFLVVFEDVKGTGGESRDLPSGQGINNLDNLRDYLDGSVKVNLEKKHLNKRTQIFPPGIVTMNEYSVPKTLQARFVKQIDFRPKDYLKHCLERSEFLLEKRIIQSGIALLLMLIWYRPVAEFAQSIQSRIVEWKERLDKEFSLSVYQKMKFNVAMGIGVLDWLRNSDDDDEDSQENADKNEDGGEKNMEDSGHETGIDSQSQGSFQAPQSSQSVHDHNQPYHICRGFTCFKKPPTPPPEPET

Question: For CC1=[N+](C)N(c2ccccc2)C(=O)C1/N=C/C=C/c1ccccc1 (configuration not stated), which AC50 (HeLa) is on record?
Answer: 308 µM (active)

Question: With CCC(CC)C(=O)Nc1ccc(S(=O)(=O)Nc2nccs2)cc1 as the compound, how does the IC50 [1] read?
Answer: 11.7 µM (not active)

Question: For CCCCN(CC)CCNC(=O)CN(C)S(=O)(=O)c1ccc2c(c1)c(=O)n(C)c(=O)n2C, which IC50 [2] is on record?
Answer: > 109 µM (inactive)

Question: And the IC50 [3]?
Answer: > 83.3 µM (inactive)

Question: For C1CCN(CCCNC2C3CC4CC(C3)CC2C4)C1 (configuration not stated), which IC50 [2] is on record?
Answer: > 109 µM (inactive)

Question: And the IC50 [3]?
Answer: > 83.3 µM (inactive)

Question: With COC(=O)C1=C(c2ccc(OC(F)(F)F)cc2)C[C@@H]2CC[C@H]1N2C(=O)NC1CCCCC1 as the compound, how does the AC50 (HeLa) read?
Answer: > 350 µM (inactive)

Question: For O=C(CCN1CCOCC1)c1ccc(N2CCCCC2)cc1, which CC50 [4] is on record?
Answer: 29.2 µM (active)

Question: Which IC50 [2] does the source give for Cc1cc(C(=O)NCc2cccnc2)no1 here?
Answer: > 109 µM (inactive)

Question: And the IC50 [3]?
Answer: > 83.3 µM (inactive)

Question: With O=C(/C=C/c1ccc2c(c1)OCO2)Nc1nc2ccccc2s1 as the compound, how does the CC50 [4] read?
Answer: > 40 µM (active)

Question: Which AC50 [5] does the source give for COc1ccc(C(=O)Nc2nc3ccccc3[nH]2)cc1 here?
Answer: 34.6 µM (active)

Question: What about the AC50 [6] of the same compound?
Answer: > 52 µM (inactive)

Question: And the AC50 [7]?
Answer: 2.45 µM (active)

Question: And the AC50 [8]?
Answer: 2.84 µM (active)

Question: What about the AC50 [9] of the same compound?
Answer: > 52 µM (inactive)

Question: With COc1ccc(CN2CCN(Cc3ccccc3)CC2)c(OC)c1 as the compound, how does the IC50 [2] read?
Answer: > 109 µM (inactive)

Question: And the IC50 [3]?
Answer: > 83.3 µM (inactive)

Question: Which CC50 [10] does the source give for Cc1cc(Cl)cc(C)c1OCCOCCNCc1ccccc1 here?
Answer: 100 µM (active)

Question: What about the IC50 [11] of the same compound?
Answer: 128 µM (active)

Question: For CC(=O)Nc1nonc1-c1nc2ccccc2n1CCC(C)C, which CC50 [4] is on record?
Answer: > 40 µM (active)

Question: For CN(Cc1nc(-c2cnccn2)no1)Cc1[nH]nc2c1CCCC2, which IC50 [1] is on record?
Answer: 7.73 µM (not active)

Question: For CCc1nc(C)ccc1OC(=O)C12CC3CC(CC(C3)C1)C2, which IC50 [1] is on record?
Answer: 8.73 µM (not active)

Question: With COc1cc(/C=N/N2C(=O)CSC2=S)cc(Br)c1O as the compound, how does the IC50 (Aminopeptidase N) read?
Answer: 107 µM (active)

Question: And the IC50 (Large T antigen)?
Answer: 12.8 µM (active)

Question: For Cc1ccc(CN2CCN(Cc3ccccc3C(F)(F)F)CC2)cc1, which CC50 [10] is on record?
Answer: 100 µM (active)

Question: And the IC50 [11]?
Answer: 40.4 µM (active)

Reference: ChEMBL document CHEMBL1201862, “PubChem BioAssay data set” (2004)
